From patent publication US9562035B2, “Benzamide derivative useful as FASN inhibitors for the treatment of cancer” (Janssen Pharmaceutica NV, priority 2013, dated 2017)

Assays:
A2780 ovarian cells [1] = assay: A2780 Ovarian Cell Proliferation Assay in Lipid Reduced Medium, with Palmitate (control); format: cell-based; settings: Homo sapiens, A2780; lipid reduced medium, 25 μM palmitate, 96 h, MTT; read-out: Proliferation A2780 with Palmitate pIC50 (converted)
How it was run: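 A2780 cells were seeded in RPMI1640 with 10% FCS, then switched next day to medium with 10% lipid-reduced serum. Compound was added with final 25 μM palmitate, 0.2% fatty-acid-free BSA and 0.2% DMSO, and incubated 96 h at 37 °C. Read-out was MTT absorbance at 544 nm; pIC50 = −log(IC50) from curve fit.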

[2] = target: T1, FASN Keto-reductase Domain (Homo sapiens, UniProt P49327); assay: Fatty Acid Synthase Keto-Reductase Domain (FASN KR) Inhibition; format: biochemical; settings: mean where tested more than once; read-out: FASN K-R Domain pIC50 (converted)
T1 construct: 10 μL hFASN enzyme (full length, 300 ng, purified in house) and 360 μM NADPH; made in house
How it was run: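 Full-length human FASN (300 ng) in 100 mM KH2PO4 pH 7.5 with 360 μM NADPH and 180 mM ethyl acetoacetate (stock); A340 decrease read over 20 min at room temperature.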

A2780 ovarian cells [3] = assay: A2780 Ovarian Cell Proliferation Assay in Lipid Reduced Medium, without Palmitate; format: cell-based; settings: Homo sapiens, A2780; lipid reduced medium, without palmitate, 96 h, MTT; read-out: Proliferation A2780 w/o Palmitate pIC50 (converted)
How it was run: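 A2780 cells were seeded in 10% FCS medium and switched next day to 10% lipid-reduced serum without palmitate. Compounds at 0.01–30 μM were added with 0.2% DMSO, 0.2% fatty-acid-free BSA and 0.25% ethanol final. After 96 h, MTT absorbance at 544 nm was normalized to plate controls, and IC50/pIC50 came from a 4-parameter logistic fit.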

[4] = target: T2, hFASN enzyme (full length) (Homo sapiens, UniProt P49327); assay: Fatty Acid Synthase (FASN) Inhibition Scintillation Proximity Assay; format: biochemical; settings: for IC50: mean where tested more than once, ~ = standard error of pIC50 larger than 0.5; for inhibition at 10 µM: read-out: FASN % Effect @1E−05M
T2 construct: 10 μL hFASN enzyme (full length, 300 ng, purified in house); made in house
How it was run: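 Purified full-length human FASN (300 ng) incubated 60 min at room temperature with NADPH, [3H]-acetyl-CoA and malonyl-CoA in 100 mM KH2PO4 pH 7.5, 1 mM DTT; compound at 30 μM to 0.01 μM. [3H]-palmitate captured by SPA imaging beads; IC50 from 4-parameter fit, reported as pIC50.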

T2 sequence (P49327 whole entry): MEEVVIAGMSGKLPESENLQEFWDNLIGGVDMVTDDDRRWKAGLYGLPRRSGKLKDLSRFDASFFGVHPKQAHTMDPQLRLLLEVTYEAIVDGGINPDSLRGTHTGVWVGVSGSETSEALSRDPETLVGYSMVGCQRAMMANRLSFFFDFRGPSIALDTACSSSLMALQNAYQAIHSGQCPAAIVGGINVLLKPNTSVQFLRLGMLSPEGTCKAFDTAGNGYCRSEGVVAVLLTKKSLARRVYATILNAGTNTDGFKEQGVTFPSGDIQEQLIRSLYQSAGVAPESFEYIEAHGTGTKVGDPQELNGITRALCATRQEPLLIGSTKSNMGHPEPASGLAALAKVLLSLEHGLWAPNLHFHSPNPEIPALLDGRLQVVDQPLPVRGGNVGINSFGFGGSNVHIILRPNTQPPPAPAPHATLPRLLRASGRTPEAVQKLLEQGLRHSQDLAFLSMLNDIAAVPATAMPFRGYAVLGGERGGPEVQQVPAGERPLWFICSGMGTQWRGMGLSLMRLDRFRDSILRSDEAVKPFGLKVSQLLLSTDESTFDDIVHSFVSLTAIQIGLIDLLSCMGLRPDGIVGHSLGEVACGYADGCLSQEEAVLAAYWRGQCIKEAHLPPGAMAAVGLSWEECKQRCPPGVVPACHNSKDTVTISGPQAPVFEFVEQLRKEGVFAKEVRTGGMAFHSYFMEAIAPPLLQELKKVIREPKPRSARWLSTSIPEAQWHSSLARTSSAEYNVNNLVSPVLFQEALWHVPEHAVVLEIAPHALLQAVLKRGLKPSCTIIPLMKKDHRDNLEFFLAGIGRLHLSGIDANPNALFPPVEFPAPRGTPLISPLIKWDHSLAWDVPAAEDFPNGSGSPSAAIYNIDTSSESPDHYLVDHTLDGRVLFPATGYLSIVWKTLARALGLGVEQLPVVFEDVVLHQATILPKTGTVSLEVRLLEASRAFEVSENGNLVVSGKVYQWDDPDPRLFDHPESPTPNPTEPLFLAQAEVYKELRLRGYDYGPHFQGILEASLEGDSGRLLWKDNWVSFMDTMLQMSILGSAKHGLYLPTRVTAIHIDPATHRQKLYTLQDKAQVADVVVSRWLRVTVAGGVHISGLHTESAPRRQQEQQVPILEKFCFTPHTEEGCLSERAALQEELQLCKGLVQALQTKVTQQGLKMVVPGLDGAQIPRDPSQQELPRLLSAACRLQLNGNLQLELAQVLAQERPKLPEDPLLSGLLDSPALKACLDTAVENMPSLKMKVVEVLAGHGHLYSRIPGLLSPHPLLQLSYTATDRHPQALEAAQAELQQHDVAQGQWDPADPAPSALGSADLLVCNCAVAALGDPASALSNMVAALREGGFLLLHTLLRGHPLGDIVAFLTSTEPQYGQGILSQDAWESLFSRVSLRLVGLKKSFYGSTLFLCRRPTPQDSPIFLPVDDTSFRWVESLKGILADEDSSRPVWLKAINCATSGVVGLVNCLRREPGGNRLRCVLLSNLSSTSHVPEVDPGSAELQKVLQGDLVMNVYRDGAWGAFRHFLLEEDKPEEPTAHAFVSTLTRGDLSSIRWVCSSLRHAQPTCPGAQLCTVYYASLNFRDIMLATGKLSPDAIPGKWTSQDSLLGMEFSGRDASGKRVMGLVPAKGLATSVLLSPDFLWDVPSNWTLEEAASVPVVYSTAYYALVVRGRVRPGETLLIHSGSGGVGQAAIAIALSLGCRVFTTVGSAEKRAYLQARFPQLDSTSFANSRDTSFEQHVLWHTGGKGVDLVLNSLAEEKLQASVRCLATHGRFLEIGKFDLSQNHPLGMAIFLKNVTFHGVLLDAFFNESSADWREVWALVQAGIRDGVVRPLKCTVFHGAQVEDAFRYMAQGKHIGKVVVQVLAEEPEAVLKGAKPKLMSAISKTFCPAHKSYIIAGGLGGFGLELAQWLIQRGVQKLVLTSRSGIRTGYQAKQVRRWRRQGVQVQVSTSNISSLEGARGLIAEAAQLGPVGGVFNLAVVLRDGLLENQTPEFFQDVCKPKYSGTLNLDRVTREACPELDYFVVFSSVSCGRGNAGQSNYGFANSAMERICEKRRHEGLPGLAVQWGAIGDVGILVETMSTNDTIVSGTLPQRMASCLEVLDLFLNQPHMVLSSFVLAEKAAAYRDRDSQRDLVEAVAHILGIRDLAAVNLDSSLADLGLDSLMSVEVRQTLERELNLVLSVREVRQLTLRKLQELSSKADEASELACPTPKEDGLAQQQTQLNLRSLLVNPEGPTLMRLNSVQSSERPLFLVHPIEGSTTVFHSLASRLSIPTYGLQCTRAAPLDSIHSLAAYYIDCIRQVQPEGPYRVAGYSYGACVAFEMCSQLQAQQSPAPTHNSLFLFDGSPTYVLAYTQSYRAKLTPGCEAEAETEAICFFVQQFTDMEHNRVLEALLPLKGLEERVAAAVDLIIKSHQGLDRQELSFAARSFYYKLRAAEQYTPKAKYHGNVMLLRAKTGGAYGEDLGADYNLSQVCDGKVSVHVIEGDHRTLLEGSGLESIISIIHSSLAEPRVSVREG
T1 sequence (P49327 whole entry, the tested form may be a part): as the sequence (P49327 whole entry) above

IC50 (A2780 ovarian cells [1])	IC50 [2]	IC50 (A2780 ovarian cells [3])	IC50 [4]	inhibition at 10 µM [4]	Structure (SMILES)
~407 nM	60.3 nM	93.3 nM	36.3 nM	103%	CC(C)Nc1ccc(C(=O)Nc2cc(C(=O)N3CC(c4ccc(-c5ccnn5C)cc4)C3)ccc2Cl)cn1 [Compound 108, N-(2-chloro-5-(3-(4-(1-methyl-1H-pyrazol-5-yl)phenyl)azetidine-1-carbonyl)phenyl)-6-(isopropylamino)nicotinamide]
~10000 nM	97.7 nM	145 nM	44.7 nM	95%	Cc1ccc(C(=O)N2CCC(c3ccc(-c4cnn(C)c4)cc3)CC2)cc1NC(=O)c1ccc(F)c(F)c1F [Compound 120, 2,3,4-trifluoro-N-(2-methyl-5-(4-(4-(1-methyl-1H-pyrazol-4-yl)phenyl)piperidine-1-carbonyl)phenyl)benzamide]
~10000 nM	1170 nM	1120 nM	589 nM	93%	Cc1ccc(C(=O)N2CCC(c3ccc4c(c3)NC(=O)CC4)CC2)cc1NC(=O)c1ccc(Cl)nc1 [Compound 23, 6-chloro-N-(2-methyl-5-(4-(2-oxo-1,2,3,4-tetrahydroquinolin-7-yl)piperidine-1-carbonyl)phenyl)nicotinamide]
> 10000 nM	60.3 nM	8.71 nM	22.4 nM	113%	Cc1ccc(C(=O)N2CCC(c3ccc(-c4cnn(C)c4)cc3)CC2)cc1NC(=O)C1CN(C)C1 [Compound 222, 1-methyl-N-(2-methyl-5-(4-(4-(1-methyl-1H-pyrazol-4-yl)phenyl)piperidine-1-carbonyl)phenyl)azetidine-3-carboxamide]
9330 nM	191 nM	141 nM	69.2 nM	103%	Cc1ccc(C(=O)N2CCC(c3ccc(-c4cnn(C)c4)cc3)CC2)cc1NC(=O)C1CN(C2CCCCC2)C1 [Compound 191, 1-cyclohexyl-N-(2-methyl-5-(4-(4-(1-methyl-1H-pyrazol-4-yl)phenyl)piperidine-1-carbonyl)phenyl)azetidine-3-carboxamide]
4470 nM	389 nM	562 nM	182 nM	98%	Cc1ccc(F)c(C(=O)Nc2cc(C(=O)N3CCC(c4ccc(-c5cnn(C)c5)cc4)CC3)ccc2C)c1 [Compound 127, 2-fluoro-5-methyl-N-(2-methyl-5-(4-(4-(1-methyl-1H-pyrazol-4-yl)phenyl)piperidine-1-carbonyl)phenyl)benzamide]
> 10000 nM	44.7 nM	93.3 nM	16.2 nM	111%	Cc1ccc(C(=O)N2CCC(c3ccc(-c4cnn(C)c4)cc3)CC2)cc1NC(=O)c1ccc(Cl)cc1 [Compound #100, 4-chloro-N-(2-methyl-5-(4-(4-(1-methyl-1H-pyrazol-4-yl)phenyl)piperidine-1-carbonyl)phenyl)benzamide]
> 10000 nM	155 nM	145 nM	31.6 nM	103%	Cc1ccc(C(=O)N2CCC(c3ccc(-c4cnn(C)c4)cc3)CC2)cc1NC(=O)c1ccccc1Cl [Compound 96, 2-chloro-N-(2-methyl-5-(4-(4-(1-methyl-1H-pyrazol-4-yl)phenyl)piperidine-1-carbonyl)phenyl)benzamide]
6460 nM	141 nM	191 nM	64.6 nM	98%	Cc1ccc(C(=O)N2CCC(c3ccc(-c4cnn(C)c4)cc3)CC2)cc1NC(=O)c1ccc(N(C)C)cn1 [Compound 119, 5-(dimethylamino)-N-(2-methyl-5-(4-(4-(1-methyl-1H-pyrazol-4-yl)phenyl)piperidine-1-carbonyl)phenyl)picolinamide]
> 10000 nM	288 nM	575 nM	182 nM	96%	Cc1ccc(C(=O)N2CCC(c3ccc(-c4cnn(C)c4)cc3)CC2)cc1NC(=O)C(C)(C)C [Compound 87, N-(2-methyl-5-(4-(4-(1-methyl-1H-pyrazol-4-yl)phenyl)piperidine-1-carbonyl)phenyl)pivalamide]
> 10000 nM	87.1 nM	70.8 nM	42.7 nM	104%	Cc1ccc(C(=O)N2CCC(c3ccc(-c4cnn(C)c4)cc3)CC2)cc1NC(=O)C1CCOCC1 [Compound 104, N-(2-methyl-5-(4-(4-(1-methyl-1H-pyrazol-4-yl)phenyl)piperidine-1-carbonyl)phenyl)tetrahydro-2H-pyran-4-carboxamide]
5750 nM	282 nM	372 nM	170 nM	92%	Cc1ccc(C(=O)N2CCC(c3ccc(-c4ccccc4F)cc3)CC2)cc1NC(=O)c1ccc(NC(C)C)nc1 [Compound 224, N-(5-(4-(2′-fluoro-[1,1′-biphenyl]-4-yl)piperidine-1-carbonyl)-2-methylphenyl)-6-(isopropylamino)nicotinamide]
955 nM	776 nM	759 nM	575 nM	72%	Cc1cccc(-c2ccc(C3CCN(C(=O)c4ccc(C)c(NC(=O)c5ccc(NC(C)C)nc5)c4)CC3)cc2)c1 [Compound 233, 6-(isopropylamino)-N-(2-methyl-5-(4-(3′-methyl-[1,1′-biphenyl]-4-yl)piperidine-1-carbonyl)phenyl)nicotinamide]
4570 nM	646 nM	708 nM	646 nM	86%	COc1ccccc1-c1ccc(C2CCN(C(=O)c3ccc(C)c(NC(=O)c4ccc(NC(C)C)nc4)c3)CC2)cc1 [Compound 200, 6-(isopropylamino)-N-(5-(4-(2′-methoxy-[1,1′-biphenyl]-4-yl)piperidine-1-carbonyl)-2-methylphenyl)nicotinamide]
> 10000 nM	126 nM	~123 nM	47.9 nM	108%	Cc1ccc(C(=O)N2CCC(c3ccc(-c4cnn(C)c4)cc3)CC2)cc1NC(=O)c1cccs1 [Compound 130, N-(2-methyl-5-(4-(4-(1-methyl-1H-pyrazol-4-yl)phenyl)piperidine-1-carbonyl)phenyl)thiophene-2-carboxamide]
> 10000 nM	331 nM	~195 nM	95.5 nM	106%	CCCN1CCC(C(=O)Nc2cc(C(=O)N3CCC(c4ccc(-c5cnn(C)c5)cc4)CC3)ccc2C)C1 (stereo not shown) [Compound 186, N-(2-methyl-5-(4-(4-(1-methyl-1H-pyrazol-4-yl)phenyl)piperidine-1-carbonyl)phenyl)-1-propylpyrrolidine-3-carboxamide]
3720 nM	38.9 nM	24 nM	21.4 nM	101%	Cc1ccc(C(=O)N2CCC(c3ccc(-c4cnn(C)c4)cc3)CC2)cc1NC(=O)c1ccncc1F [Compound 161, 3-fluoro-N-(2-methyl-5-(4-(4-(1-methyl-1H-pyrazol-4-yl)phenyl)piperidine-1-carbonyl)phenyl)isonicotinamide]
8320 nM	191 nM	95.5 nM	44.7 nM	106%	Cc1ccc(C(=O)N2CCC(c3ccc(-c4cnn(C)c4)cc3)CC2)cc1NC(=O)c1nc(Br)cs1 [Compound 244, 4-bromo-N-(2-methyl-5-(4-(4-(1-methyl-1H-pyrazol-4-yl)phenyl)piperidine-1-carbonyl)phenyl)thiazole-2-carboxamide]
2400 nM	115 nM	41.7 nM	28.8 nM	112%	COc1ccc(C(=O)N2CCC(c3ccc(-c4cnn(C)c4)cc3)CC2)cc1NC(=O)c1ccc(NC(C)C)nc1 [Compound #251, 6-(isopropylamino)-N-(2-methoxy-5-(4-(4-(1-methyl-1H-pyrazol-4-yl)phenyl)piperidine-1-carbonyl)phenyl)nicotinamide]
6170 nM	91.2 nM	38.9 nM	33.9 nM	112%	Cc1ccc(C(=O)N2CCC(c3ccc(-c4cnn(C(C)C)c4)cc3)CC2)cc1NC(=O)c1ccc(NC(C)C)nc1 [Compound 247, N-(5-(4-(4-(1-isopropyl-1H-pyrazol-4-yl)phenyl)piperidine-1-carbonyl)-2-methylphenyl)-6-(isopropylamino)nicotinamide]
